Assay results from ChEMBL document CHEMBL1201862, “PubChem BioAssay data set” (2004).
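Cells were grown in 96-well plates and exposed to each compound for 48 hours at five concentrations; endpoints were interpolated linearly between bracketing concentrations, or set to the highest concentration if not reached. The concentration for 50% growth inhibition is given as GI50.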 Activity calls are given as the source filed them. Rule as the data show it: active = GI50 up to about 1.1 µM and inactive = higher.

What was measured:
Assay in all cases: NCI anticancer screen, dose series, 48 h
[1] = tested on: SF-539
[2] = tested on: KM12
[3] = tested on: NCI-H226
[4] = tested on: OVCAR-8
[5] = tested on: K562
[6] = tested on: ACHN
[7] = tested on: NCI-H23
[8] = tested on: BT-549
[9] = tested on: SW-620
[10] = tested on: DU-145
[11] = tested on: MDA-N
[12] = tested on: A549
[13] = tested on: COLO 205
[14] = tested on: HOP-62
[15] = tested on: SNB-75
[16] = tested on: UACC-257
[17] = tested on: M14
[18] = tested on: MDA-MB-435
[19] = tested on: OVCAR-4

Measured: GI50

O=C(/C=C/c1ccc(O)c(O)c1)OCCc1ccc2ccccc2c1
inactive: [1] 5.83 µM | [2] 3.64 µM | [3] 14.8 µM | [4] 10.4 µM | [5] 2.99 µM | [6] 2.86 µM | [7] 3.42 µM | [8] 2.91 µM | [9] 6.93 µM | [10] 11.9 µM | [11] 2.38 µM | [12] 9.35 µM | [13] 4.59 µM | [14] 13.2 µM | [15] 1.87 µM | [16] 11 µM | [17] 4.95 µM | [18] 2.54 µM

c1ccc(CCNCc2ccco2)nc1
inactive: [1] > 100 µM | [2] > 100 µM | [19] > 100 µM | [3] > 100 µM | [4] > 100 µM | [6] > 100 µM | [7] > 100 µM | [8] > 100 µM | [9] > 100 µM | [10] > 100 µM | [11] > 100 µM | [12] > 100 µM | [13] > 100 µM | [14] > 100 µM | [15] > 77.4 µM | [16] > 100 µM | [17] > 100 µM | [18] > 100 µM

O=C(OCc1ccccc1)N1CCNCCN(C(=O)OCc2ccccc2)CCNCC1
inactive: [1] 14.6 µM | [2] 26 µM | [19] 40.4 µM | [3] 36.9 µM | [4] 55.1 µM | [5] 25.5 µM | [6] 50.4 µM | [8] 45.6 µM | [9] 32.1 µM | [10] 95.7 µM | [11] 15.6 µM | [12] 63.2 µM | [14] 16.9 µM | [15] 25.6 µM | [16] 21.4 µM | [18] 24 µM

Cc1cc(=O)n2nc(CSc3nnc(N)s3)sc2n1
inactive: [1] > 100 µM | [2] > 100 µM | [19] > 100 µM | [3] > 100 µM | [4] > 100 µM | [5] > 100 µM | [6] > 100 µM | [7] > 100 µM | [8] > 100 µM | [9] > 100 µM | [10] > 100 µM | [11] > 100 µM | [12] > 100 µM | [13] > 100 µM | [14] > 100 µM | [15] > 100 µM | [16] > 100 µM | [17] > 100 µM | [18] > 100 µM

COc1ccc(C2SCC(=O)N2NC(=O)C(C)Oc2ccc(Cl)cc2Cl)cc1 (stereo not drawn)
inactive: [1] 17 µM | [2] 55.1 µM | [19] 23.6 µM | [3] 16.4 µM | [4] 31.3 µM | [5] 27 µM | [6] 72.3 µM | [7] 64.9 µM | [8] 23.7 µM | [9] > 100 µM | [10] 53 µM | [11] 83 µM | [12] 31.6 µM | [13] 73.8 µM | [14] 20.6 µM | [15] 22 µM | [16] 42.4 µM | [17] 51.2 µM | [18] 76.7 µM

O=c1[nH]c(=O)n(COCc2ccccc2)c2ccsc12
inactive: [1] 66.8 µM | [2] > 100 µM | [19] > 100 µM | [3] > 100 µM | [4] > 100 µM | [5] 59 µM | [6] > 100 µM | [8] > 100 µM | [9] > 100 µM | [10] > 100 µM | [11] > 100 µM | [12] > 100 µM | [13] > 100 µM | [14] 96.4 µM | [15] 75 µM | [16] > 100 µM | [17] > 100 µM | [18] > 100 µM

CCOC(=O)NC(OCCN(C)C)(C(F)(F)F)C(F)(F)F
inactive: [1] > 100 µM | [2] > 100 µM | [3] > 100 µM | [4] > 100 µM | [5] > 100 µM | [6] > 100 µM | [7] > 100 µM | [8] > 100 µM | [9] > 100 µM | [10] > 100 µM | [11] > 100 µM | [12] > 100 µM | [13] > 100 µM | [14] > 100 µM | [15] > 100 µM | [16] > 100 µM | [17] > 100 µM | [18] > 100 µM

CN1C2CC(=O)CC1[C@@H]1OC(c3ccccc3)O[C@H]21 (stereo partly drawn)
inactive: [1] > 100 µM | [2] > 100 µM | [19] > 100 µM | [3] > 100 µM | [4] > 100 µM | [5] > 100 µM | [7] > 100 µM | [8] > 100 µM | [9] > 100 µM | [10] > 100 µM | [11] > 100 µM | [12] > 100 µM | [13] > 100 µM | [14] > 100 µM | [15] > 100 µM | [16] > 100 µM | [17] > 100 µM | [18] > 100 µM

O=Cc1cccc2c1Oc1c(cccc1C(=O)O)S2
inactive: [1] 38.9 µM | [2] 13.7 µM | [19] 98.4 µM | [3] > 100 µM | [4] 53.7 µM | [6] 34.3 µM | [7] > 100 µM | [8] > 100 µM | [9] > 100 µM | [10] 56.1 µM | [11] 59.2 µM | [12] 23.6 µM | [13] 23.2 µM | [14] 49.9 µM | [15] 78.7 µM | [16] > 100 µM | [17] > 100 µM | [18] > 100 µM

COc1ccc(-n2c(=O)n(C)c(=O)n2-c2ccc(OC)cc2)cc1
inactive: [1] > 100 µM | [2] > 100 µM | [3] > 100 µM | [4] > 100 µM | [5] > 100 µM | [6] > 100 µM | [7] > 100 µM | [8] > 100 µM | [9] > 100 µM | [10] > 100 µM | [11] > 100 µM | [12] > 100 µM | [13] > 100 µM | [14] > 100 µM | [15] 56.6 µM | [16] > 100 µM | [17] > 100 µM | [18] > 100 µM

COC(=O)CN(CC1O[C@@H]2OC(C)(C)O[C@@H]2C1NC(C)=O)C(=O)OCc1ccccc1 (stereo partly drawn)
inactive: [1] > 100 µM | [2] > 100 µM | [19] > 100 µM | [3] > 100 µM | [4] > 100 µM | [5] > 100 µM | [6] > 100 µM | [8] 59.8 µM | [9] > 100 µM | [10] > 100 µM | [11] > 100 µM | [12] > 100 µM | [13] > 100 µM | [14] > 100 µM | [15] > 100 µM | [16] > 100 µM | [17] > 100 µM | [18] > 100 µM

O=C1C[C@@H](c2ccccc2)NCCCCN(O)CCCN1
inactive: [1] > 100 µM | [2] > 100 µM | [19] 88.5 µM | [3] > 100 µM | [4] > 100 µM | [6] > 100 µM | [7] > 100 µM | [8] > 100 µM | [9] > 100 µM | [10] > 100 µM | [11] > 100 µM | [12] > 100 µM | [13] > 100 µM | [14] > 100 µM | [15] > 100 µM | [16] > 100 µM | [17] > 100 µM | [18] > 100 µM

CC(=O)Oc1cc(OC(C)=O)c2c(c1C)CC[C@@H]1[C@@H]2CC[C@]2(C)[C@@H](OC(C)=O)CC[C@@H]12
inactive: [1] 16.1 µM | [2] 16.6 µM | [3] 17.4 µM | [4] 20.2 µM | [5] 22 µM | [6] 17.5 µM | [7] 20.2 µM | [8] 18.5 µM | [9] 18.9 µM | [10] 24.1 µM | [11] 18.6 µM | [12] 18.5 µM | [14] 20.9 µM | [15] 22.5 µM | [16] 17.7 µM | [17] 19.5 µM | [18] 16.7 µM

NNC(=O)Cc1cccnc1
inactive: [1] > 100 µM | [2] > 100 µM | [19] > 100 µM | [4] > 100 µM | [5] > 100 µM | [6] > 100 µM | [7] > 100 µM | [8] > 100 µM | [9] > 100 µM | [10] > 100 µM | [11] > 100 µM | [12] > 100 µM | [13] > 100 µM | [14] > 100 µM | [15] > 100 µM | [16] > 100 µM | [17] > 100 µM | [18] > 100 µM

Cc1ccc2nc(Cl)c(/C=N/N3C(=O)/C(=C/c4ccccc4S)N=C3c3ccccc3)cc2c1
inactive: [1] 15.2 µM | [2] 25.5 µM | [19] 29.6 µM | [4] 47.8 µM | [5] 11.7 µM | [6] 46.6 µM | [8] 49.5 µM | [9] 39.2 µM | [10] 53.3 µM | [11] 17 µM | [12] 33.4 µM | [13] 28.2 µM | [14] 27.7 µM | [15] 22.1 µM | [16] 68.5 µM | [17] 23.3 µM | [18] 12.6 µM
